Patent EP0097439A2, “A crystalline prostaglandin salt” (THE UPJOHN COMPANY, priority 1982, dated 1984)
Like-named read-outs stand apart in the source and are kept apart here.

Assay: Plasma levels of 9-deoxo-16,16-dimethyl-9-methylene-PGE2 by radioimmunoassay after insertion of a suppository
Assay type: in vivo, Rhesus monkeys (Macaca mulatta)
Conditions: for concentration at 0.25 h / concentration at 1 h / concentration at 1.5 h / concentration at 2 h / concentration at 3 h / concentration at 4 h / concentration at 6 h / concentration at 24 h / concentration at 0.5 h: rhesus monkey, plasma, 30 mg, read-out: Drug Levels
Text: A. Midtrimester pregnant female Rhesus monkeys (Macaca mulatta) are used. (The first day of menstrual bleeding is designated Day 1 of the menstrual cycle; the first day a female is placed with a male for breeding is designated Day 1 of pregnancy. Pregnancy is confirmed by abdominal palpation of the uterus.)
Blood samples are collected into heparinized syringes at specified times following insertion of a suppository in pregnant or non- pregnant monkeys. Plasma is extracted and assayed for 9-deoxo-16,16-dimethyl-9-methylene-PGE2 content by radioimmunoassay.
C. Six suppository lots are prepared (4), each containing 9- deoxo-16,16-dimethyl-9-methylene-PGE2 or its crystalline potassium salt (Examples 1 and 2). Two lots are made with Witepsol H15 alone as the suppository base, two with Witepsol HIS wax plus 2% colloidal silicon dioxide (CSD) and two with Witepsol H15 plus 2% CSD plus 10% triacetin. Suppositories are prepared using Witepsol H15 suppository wax. Free acid or potassium salt is dispersed in the hot wax using a homogenizer. Two percent colloidal silicon dioxide (CSD) is mixed in by further homogenization. In the third formulation, triacetin (10%) is added before the CSD and then homogenized for one minute. Suppositories are formed in 800 mg aluminum molds and are stored at 4°C until used.
D. The plasma levels of 9-deoxo-16,16-d1methy1-9-methy1ene-PGE2 in monkeys treated with 6 formulations containing either 9-deoxo-16,16-dimethyl-9-methylene-PGE2 free acid or potassium salt are shown in Tables 1-6. In general, higher blood levels are measured in pregnant Rhesus monkeys than in non-pregnant monkeys.

[1] = Monkey #1, 30 mg Free Acid in H15 Suppositories
[2] = Monkey #2, 30 mg Free Acid in H15 Suppositories
[3] = Monkey #3 (pregnant animal with uterine recording), 30 mg Free Acid in H15 Suppositories
[4] = Monkey #7, 30 mg Free Acid in H15 Plus 2% CSD Suppositories
[5] = Monkey #8, 30 mg Free Acid in H15 Plus 2% CSD Suppositories
[6] = Monkey #9 (pregnant animal with uterine recording), 30 mg Free Acid in H15 Plus 2% CSD Suppositories
[7] = Monkey #13, 30 mg Free Acid in H15 Plus 2% CSD + 10% Triacetin Suppositories
[8] = Monkey #14, 30 mg Free Acid in H15 Plus 2% CSD + 10% Triacetin Suppositories
[9] = Monkey #15 (pregnant animal with uterine recording), 30 mg Free Acid in H15 Plus 2% CSD + 10% Triacetin Suppositories

## C=C1C[C@@H](O)[C@H](/C=C/[C@@H](O)C(C)(C)CCCC)[C@H]1C/C=C\CCCC(=O)O [Free Acid, 9-deoxo-16,16-dimethyl-9-methylene-PGE2]
Rhesus monkeys, 30 mg (acid equivalents) per dose in three suppository formulations
  bioavailability (drug plasma levels and uterine activity), free acid versus potassium salt: equally bioavailable
[1]
  concentration at 0.25 h: 5.14 ng/mL
  concentration at 1.5 h: 7.89 ng/mL
Monkey #1, 1.0 Hours, 30 mg Free Acid in H15 Suppositories
  concentration at 1 h: 4.39 ng/mL
Monkey #1, 2.0 Hours, 30 mg Free Acid in H15 Suppositories
  concentration at 2 h: 4.16 ng/mL
Monkey #1, 3.0 Hours, 30 mg Free Acid in H15 Suppositories
  concentration at 3 h: 0.23 ng/mL
Monkey #1, 4.0 Hours, 30 mg Free Acid in H15 Suppositories
  concentration at 4 h: 7.43 ng/mL
Monkey #1, 6.0 Hours, 30 mg Free Acid in H15 Suppositories
  concentration at 6 h: 10.1 ng/mL
Monkey #1, 24.0 Hours, 30 mg Free Acid in H15 Suppositories
  concentration at 24 h: 7.68 ng/mL
Monkey #1, .5 Hours, 30 mg Free Acid in H15 Suppositories
  concentration at 0.5 h: 1.69 ng/mL
[2]
  concentration at 0.25 h: 0.61 ng/mL
  concentration at 1.5 h: 3.35 ng/mL
Monkey #2, 2.0 Hours, 30 mg Free Acid in H15 Suppositories
  concentration at 2 h: 5.56 ng/mL
Monkey #2, 3.0 Hours, 30 mg Free Acid in H15 Suppositories
  concentration at 3 h: 13 ng/mL
Monkey #2, 4.0 Hours, 30 mg Free Acid in H15 Suppositories
  concentration at 4 h: 14.7 ng/mL
Monkey #2, 6.0 Hours, 30 mg Free Acid in H15 Suppositories
  concentration at 6 h: 17.3 ng/mL
Monkey #2, 24.0 Hours, 30 mg Free Acid in H15 Suppositories
  concentration at 24 h: 4.97 ng/mL
[3]
  concentration at 0.25 h: 142 ng/mL
  concentration at 1.5 h: 66.8 ng/mL
Monkey #3 (pregnant animal with uterine recording), 1.0 Hours, 30 mg Free Acid in H15 Suppositories
  concentration at 1 h: 93.9 ng/mL
Monkey #3 (pregnant animal with uterine recording), 2.0 Hours, 30 mg Free Acid in H15 Suppositories
  concentration at 2 h: 60.8 ng/mL
Monkey #3 (pregnant animal with uterine recording), 3.0 Hours, 30 mg Free Acid in H15 Suppositories
  concentration at 3 h: 56.1 ng/mL
Monkey #3 (pregnant animal with uterine recording), 4.0 Hours, 30 mg Free Acid in H15 Suppositories
  concentration at 4 h: 35.7 ng/mL
Monkey #3 (pregnant animal with uterine recording), 6.0 Hours, 30 mg Free Acid in H15 Suppositories
  concentration at 6 h: 13.7 ng/mL
Monkey #3 (pregnant animal with uterine recording), 24.0 Hours, 30 mg Free Acid in H15 Suppositories
  concentration at 24 h: 5.67 ng/mL
Monkey #3 (pregnant animal with uterine recording), .5 Hours, 30 mg Free Acid in H15 Suppositories
  concentration at 0.5 h: 63.6 ng/mL
[4]
  concentration at 0.25 h: 39.2 ng/mL
  concentration at 1.5 h: 42.2 ng/mL
Monkey #7, 0.5 Hours, 30 mg Free Acid in H15 Plus 2% CSD Suppositories
  concentration at 0.5 h: 44.5 ng/mL
Monkey #7, 1.0 Hours, 30 mg Free Acid in H15 Plus 2% CSD Suppositories
  concentration at 1 h: 63.9 ng/mL
Monkey #7, 2 Hours, 30 mg Free Acid in H15 Plus 2% CSD Suppositories
  concentration at 2 h: 37 ng/mL
Monkey #7, 3 Hours, 30 mg Free Acid in H15 Plus 2% CSD Suppositories
  concentration at 3 h: 16.9 ng/mL
Monkey #7, 4 Hours, 30 mg Free Acid in H15 Plus 2% CSD Suppositories
  concentration at 4 h: 13.2 ng/mL
Monkey #7, 6 Hours, 30 mg Free Acid in H15 Plus 2% CSD Suppositories
  concentration at 6 h: 6.5 ng/mL
Monkey #7, 24 Hours, 30 mg Free Acid in H15 Plus 2% CSD Suppositories
  concentration at 24 h: 4.01 ng/mL
[5]
  concentration at 0.25 h: 51.4 ng/mL
  concentration at 1.5 h: 61.1 ng/mL
Monkey #8, 0.5 Hours, 30 mg Free Acid in H15 Plus 2% CSD Suppositories
  concentration at 0.5 h: 134 ng/mL
Monkey #8, 1.0 Hours, 30 mg Free Acid in H15 Plus 2% CSD Suppositories
  concentration at 1 h: 88.2 ng/mL
Monkey #8, 2 Hours, 30 mg Free Acid in H15 Plus 2% CSD Suppositories
  concentration at 2 h: 78.3 ng/mL
Monkey #8, 3 Hours, 30 mg Free Acid in H15 Plus 2% CSD Suppositories
  concentration at 3 h: 29.1 ng/mL
Monkey #8, 4 Hours, 30 mg Free Acid in H15 Plus 2% CSD Suppositories
  concentration at 4 h: 12.4 ng/mL
Monkey #8, 6 Hours, 30 mg Free Acid in H15 Plus 2% CSD Suppositories
  concentration at 6 h: 2.49 ng/mL
Monkey #8, 24 Hours, 30 mg Free Acid in H15 Plus 2% CSD Suppositories
  concentration at 24 h: 15.7 ng/mL
[6]
  concentration at 0.25 h: 60.7 ng/mL
  concentration at 1.5 h: 62.8 ng/mL
Monkey #9 (pregnant animal with uterine recording), 0.5 Hours, 30 mg Free Acid in H15 Plus 2% CSD Suppositories
  concentration at 0.5 h: 52.2 ng/mL
Monkey #9 (pregnant animal with uterine recording), 1.0 Hours, 30 mg Free Acid in H15 Plus 2% CSD Suppositories
  concentration at 1 h: 63.1 ng/mL
Monkey #9 (pregnant animal with uterine recording), 2 Hours, 30 mg Free Acid in H15 Plus 2% CSD Suppositories
  concentration at 2 h: 62.9 ng/mL
Monkey #9 (pregnant animal with uterine recording), 3 Hours, 30 mg Free Acid in H15 Plus 2% CSD Suppositories
  concentration at 3 h: 40.2 ng/mL
Monkey #9 (pregnant animal with uterine recording), 4 Hours, 30 mg Free Acid in H15 Plus 2% CSD Suppositories
  concentration at 4 h: 57.8 ng/mL
Monkey #9 (pregnant animal with uterine recording), 6 Hours, 30 mg Free Acid in H15 Plus 2% CSD Suppositories
  concentration at 6 h: 32 ng/mL
Monkey #9 (pregnant animal with uterine recording), 24 Hours, 30 mg Free Acid in H15 Plus 2% CSD Suppositories
  concentration at 24 h: 21 ng/mL
[7]
  concentration at 0.25 h: 12.6 ng/mL
  concentration at 1.5 h: 3.09 ng/mL
Monkey #13, 0.5 Hours, 30 mg Free Acid in H15 Plus 2% CSD + 10% Triacetin Suppositories
  concentration at 0.5 h: 9.25 ng/mL
Monkey #13, 1 Hours, 30 mg Free Acid in H15 Plus 2% CSD + 10% Triacetin Suppositories
  concentration at 1 h: 2.8 ng/mL
Monkey #13, 2 Hours, 30 mg Free Acid in H15 Plus 2% CSD + 10% Triacetin Suppositories
  concentration at 2 h: 5.46 ng/mL
Monkey #13, 3 Hours, 30 mg Free Acid in H15 Plus 2% CSD + 10% Triacetin Suppositories
  concentration at 3 h: 15.1 ng/mL
Monkey #13, 4 Hours, 30 mg Free Acid in H15 Plus 2% CSD + 10% Triacetin Suppositories
  concentration at 4 h: 22.5 ng/mL
Monkey #13, 6 Hours, 30 mg Free Acid in H15 Plus 2% CSD + 10% Triacetin Suppositories
  concentration at 6 h: 23.8 ng/mL
Monkey #13, 24 Hours, 30 mg Free Acid in H15 Plus 2% CSD + 10% Triacetin Suppositories
  concentration at 24 h: 26 ng/mL
[8]
  concentration at 0.25 h: 18.8 ng/mL
  concentration at 1.5 h: 32 ng/mL
Monkey #14, 0.5 Hours, 30 mg Free Acid in H15 Plus 2% CSD + 10% Triacetin Suppositories
  concentration at 0.5 h: 36 ng/mL
Monkey #14, 1 Hours, 30 mg Free Acid in H15 Plus 2% CSD + 10% Triacetin Suppositories
  concentration at 1 h: 25.1 ng/mL
Monkey #14, 2 Hours, 30 mg Free Acid in H15 Plus 2% CSD + 10% Triacetin Suppositories
  concentration at 2 h: 28.7 ng/mL
Monkey #14, 3 Hours, 30 mg Free Acid in H15 Plus 2% CSD + 10% Triacetin Suppositories
  concentration at 3 h: 20.2 ng/mL
Monkey #14, 4 Hours, 30 mg Free Acid in H15 Plus 2% CSD + 10% Triacetin Suppositories
  concentration at 4 h: 16.6 ng/mL
Monkey #14, 6 Hours, 30 mg Free Acid in H15 Plus 2% CSD + 10% Triacetin Suppositories
  concentration at 6 h: 16.2 ng/mL
Monkey #14, 24 Hours, 30 mg Free Acid in H15 Plus 2% CSD + 10% Triacetin Suppositories
  concentration at 24 h: 12.9 ng/mL
[9]
  concentration at 0.25 h: 119 ng/mL
  concentration at 1.5 h: 26.8 ng/mL
Monkey #15 (pregnant animal with uterine recording), 0.5 Hours, 30 mg Free Acid in H15 Plus 2% CSD + 10% Triacetin Suppositories
  concentration at 0.5 h: 154 ng/mL
Monkey #15 (pregnant animal with uterine recording), 1 Hours, 30 mg Free Acid in H15 Plus 2% CSD + 10% Triacetin Suppositories
  concentration at 1 h: 154 ng/mL
Monkey #15 (pregnant animal with uterine recording), 2 Hours, 30 mg Free Acid in H15 Plus 2% CSD + 10% Triacetin Suppositories
  concentration at 2 h: 44.8 ng/mL
Monkey #15 (pregnant animal with uterine recording), 3 Hours, 30 mg Free Acid in H15 Plus 2% CSD + 10% Triacetin Suppositories
  concentration at 3 h: 65.9 ng/mL
Monkey #15 (pregnant animal with uterine recording), 4 Hours, 30 mg Free Acid in H15 Plus 2% CSD + 10% Triacetin Suppositories
  concentration at 4 h: 22.1 ng/mL
Monkey #15 (pregnant animal with uterine recording), 6 Hours, 30 mg Free Acid in H15 Plus 2% CSD + 10% Triacetin Suppositories
  concentration at 6 h: 13 ng/mL
Monkey #15 (pregnant animal with uterine recording), 24 Hours, 30 mg Free Acid in H15 Plus 2% CSD + 10% Triacetin Suppositories
  concentration at 24 h: 2.76 ng/mL
